Results on eight compounds are retold here after PubChem BioAssay (NCI).

Holding throughout (assay): NCI anticancer screen, dose series, 48 h
In assay [1] the test system is COLO 205 colon.
Assay [2] has as its system HCT-116 colon.
Assay [3] concerns HL-60(TB) leukemia.
The test system of assay [4] is HS 578T breast.
Assay [5] has as its system KM12 colon.
Assay [6] has as its system MCF7 breast.
In assay [7] the test system is NCI-H226 lung.
The test system of assay [8] is NCI-H460 lung.
Assay [9] relates to OVCAR-3 ovarian.
The subject of assay [10] is OVCAR-5 ovarian.

SMILES strings stand for the structures. Several values for one entry are separate records, joined by “and”; a condition that tells them apart may be missing. Equal values may be shown once.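 Compound exposure: 48 hours, 5 concentrations, 96-well plates. GI50: concentration for 50% inhibition of growth. TGI marks complete inhibition of growth.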

Regarding `CC1(C)CC[C@]2(CO)CC[C@]3(C)C(=CC[C@@H]4[C@@]5(C)CCNCC(C)(C)[C@@H]5CC[C@]43C)[C@@H]2C1`, the GI50 in assay [1] is 1.9 µM; in assay [2], 3.13 µM; in assay [3], 2.45 µM; in assay [4], 4.88 µM; in [5], 3.32 µM; in [6], 3.07 µM. In addition, the GI50 was 16.8 µM in assay [7], 2.08 µM in assay [8], 6.68 µM in assay [9] and 4.94 µM in assay [10]. Besides, the TGI in assay [1] stood at 4 µM; in assay [2], 12.4 µM; in assay [3], 7.34 µM; in assay [4], 22.1 µM; in [5], 12.2 µM; in assay [6] it was 13.3 µM. Moreover, the TGI amounted to 35.5 µM in [7], 4.82 µM in assay [8], 27.7 µM in assay [9] and 17.6 µM in [10].
With `NC(Cc1c[nH]c2cccc(F)c12)C(=O)O` (stereo not given), the GI50 in assay [1] was 43.6 µM and 302 µM; in assay [2] it was 43.8 µM and 305 µM; in assay [4] it was 62.9 µM and 501 µM; in [5], 25.2 µM and 230 µM; in assay [6] it was 35.4 µM and 327 µM; in [7], 3210 µM. In addition, the GI50 was 34.9 µM and 235 µM in [8]; 39.6 µM and 237 µM in assay [9]; 1280 µM in assay [10]. Also, the TGI in assay [1] is 944 µM; in assay [2] it was 1000 µM; in [3], more than 4500 µM; in [4] it was more than 4500 µM; in assay [5] it was more than 4500 µM; in [6] it was 1650 µM. Moreover, the TGI in assay [7] was more than 4500 µM; in assay [8] it was 2460 µM; in assay [9], 967 µM; in assay [10] it was more than 4500 µM.
Turning to `OCC1OC(n2cnc3c(NCc4ccco4)ncnc32)C(O)C1O` (stereo not given), the GI50 was 2.25 µM in assay [1]; 0.338 µM in assay [2]; 0.724 µM in [3]; 3.38 µM in assay [4]; 8.51 µM in [5]; 0.72 µM in assay [6]. Also, the GI50 is 12 µM in assay [7], 2.79 µM in assay [8], 1.34 µM in assay [9] and 4.76 µM in assay [10]. Also, the TGI was 7.83 µM in assay [1]; 1.59 µM in assay [2]; 3.48 µM in assay [3]; more than 100 µM in [4]; more than 100 µM in assay [5]; more than 25.5 µM in [6]. Further, the TGI was more than 71.2 µM in assay [7], 32.8 µM in [8], 3.12 µM in assay [9] and more than 100 µM in [10].
For the compound `CC(=N/NC(N)=S)/C(C)=N/NC(N)=S`, the TGI in assay [1], in [2], in assay [3], in [4], in assay [5] and in assay [6] was more than 100 µM throughout. Besides, the TGI in assay [7], in [8], in assay [9] and in assay [10] was more than 100 µM each time.
Turning to `C[C@@H](Oc1cc(-c2cnn(C3CCNCC3)c2)cnc1N)c1c(Cl)cc(F)cc1Cl`, the GI50 in assay [1] is 0.857 µM; in assay [2], 1.12 µM; in [3], 0.917 µM; in [4], 2.41 µM; in assay [5], 0.0496 µM; in [6] it was 0.516 µM. Moreover, the GI50 is 2.25 µM in assay [7], 0.902 µM in [8], 4.13 µM in assay [9] and 2 µM in [10]. Besides, the TGI in assay [1] came out at 2.45 µM; in [2], 5.16 µM; in assay [3], 2.95 µM; in assay [4], 10.1 µM; in assay [5], 2.93 µM; in [6], 2.12 µM. In addition, the TGI came out at 9.87 µM in assay [7], 5.4 µM in [8], 13.5 µM in assay [9] and 10.1 µM in assay [10].
On to `O=c1[nH]c2ccccc2n1C1CCN(CCOc2ccccc2)CC1`, for which the GI50 is 14.5 µM in [1]; 10.7 µM in [2]; 12.9 µM in [3]; 20.8 µM in assay [4]; 40.4 µM in [5]; 26.3 µM in [6]. In addition, the GI50 was 30.1 µM in assay [7], 18.7 µM in [8], 14 µM in [9] and 47.8 µM in assay [10]. The TGI was 45.8 µM in assay [1]; more than 100 µM in assay [2]; more than 100 µM in [3]; 77.6 µM in [4]; more than 100 µM in assay [5]; more than 100 µM in assay [6]. The TGI in [7], in [8], in assay [9] and in [10] was more than 100 µM in each case.
As to `Cc1ccc(NC2=CC(=O)C(=O)c3ccccc32)cc1`, the GI50 in assay [1] was 1.65 µM; in [2] it was 2.23 µM; in assay [3], 2.77 µM; in assay [4] it was 2.54 µM; in assay [5], 2.59 µM; in assay [6] it was 1.54 µM. The GI50 was 1.92 µM in [7], 1.7 µM in assay [8], 1.66 µM in assay [9] and 1.9 µM in assay [10]. For the same compound, the TGI in [1] is 3.1 µM; in assay [2], 9.13 µM; in assay [3] it was more than 100 µM; in assay [4] it was 7.26 µM; in [5] it was 9.73 µM; in [6] it was 3.63 µM. Besides, the TGI amounted to 4.46 µM in assay [7], 3.94 µM in assay [8], 4.86 µM in assay [9] and 3.54 µM in assay [10].
In the case of `CCN(CC)CCCC(C)Nc1ccnc(/C=C/c2ccc(Cl)cc2)c1` (stereo not given), the TGI in assay [1] is 3.01 µM; in assay [2] it was 3.22 µM; in assay [3], more than 100 µM; in assay [4], 5.81 µM; in assay [5] it was 7.39 µM; in [6], 4.84 µM. For the same compound, the TGI in assay [7] is 4.97 µM; in assay [8], 7.49 µM; in assay [9], 4.98 µM; in assay [10] it was 8.04 µM. Besides, in [7], the GI50 was 2.02 µM.
